Measured values from article PMC11359831, “Stepwise Structural Simplification of the Dihydroxyanthraquinone Moiety of a Multitarget Rhein-Based Anti-Alzheimer Lead to Improve Drug Metabolism and Pharmacokinetic Properties” (Pharmaceutics, 2024).
In brackets after ≈: the same amount, converted by molar mass.

What was measured:
[1] = molecular target: T1, human recombinant BACE-1 (hBACE-1) (Homo sapiens, UniProt P56817); assay: In vitro hBACE-1 inhibition (fluorometric method); format: biochemical
T1 construct: purchased Invitrogen, Carlsbad, CA, USA
T1 sequence (P56817 46-501): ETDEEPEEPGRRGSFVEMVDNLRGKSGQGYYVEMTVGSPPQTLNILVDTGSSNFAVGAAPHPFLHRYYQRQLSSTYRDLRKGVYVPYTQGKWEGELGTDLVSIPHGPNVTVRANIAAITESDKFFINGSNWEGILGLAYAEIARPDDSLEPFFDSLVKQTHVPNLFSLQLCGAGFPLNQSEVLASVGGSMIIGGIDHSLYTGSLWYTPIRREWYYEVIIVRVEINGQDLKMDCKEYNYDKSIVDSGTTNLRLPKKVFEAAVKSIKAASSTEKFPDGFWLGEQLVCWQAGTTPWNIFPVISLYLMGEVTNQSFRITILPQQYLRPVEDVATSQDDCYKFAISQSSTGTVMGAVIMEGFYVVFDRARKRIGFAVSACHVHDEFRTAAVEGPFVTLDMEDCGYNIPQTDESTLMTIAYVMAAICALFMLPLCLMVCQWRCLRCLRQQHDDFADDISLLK
Protocol: The inhibition of human recombinant BACE-1 (hBACE-1) (Invitrogen, Carlsbad, CA, USA) by hybrids 4–7 was evaluated by a fluorometric method. The substrate (Panvera peptide, 10 μL, 250 nM final concentration) was added to a solution (10 μL) of hybrids 4–7 or buffer in control wells (20 mM sodium acetate at pH 4.5, with 0.1% w/v CHAPS). After the addition of the enzyme (10 μL, 12.91 mU), the assay solution was incubated for 1 h at 37 °C. Thereafter, STOP solution (10 μL, 2.5 M sodium acetate) was added and the fluorescence was read at […]. The DMSO concentration in the assay solution was kept <5% (v/v) to ensure no significant loss of BACE-1 activity. The background signal, determined in control wells with all the components of the assay but BACE-1, was subtracted. The fluorescence intensities in the presence of increasing concentrations or in the absence of hybrids 4–7 were compared to calculate the percent of enzyme inhibition produced by the compounds, by applying the following expression: 100 − (IFi/IFo × 100), in which IFi and IFo are the fluorescence intensities in the presence and in the absence of the compounds, respectively. Additionally, the IC50 values were calculated (GraphPad Prism 4.03 software, GraphPad Software Inc., San Diego, CA, USA) and are given as the mean ± SEM of at least two experiments, each performed in triplicate.

physchem = details: 37 °C, aqueous buffer, kinetic from dmso stock
Protocol: The resulting solutions were incubated at 37 °C. After 2 h incubation, the samples were read using a BMG LABTECH NEPHELOstar Plus laser nephelometer (Ortenberg, Germany).

Aβ42 aggregation = molecular target: T2, Aβ42 aggregation (Homo sapiens, UniProt P05067); assay: Aβ42 aggregation inhibition in genetically modified E. coli cells (Th-S fluorescence); format: cell-based, Escherichia coli; details: live E. coli cells overexpressing Aβ42
T2 construct: expressed in transfected cells; host or cells: E. coli BL21 (DE3) bearing pET28a-Aβ42
T2 sequence (P05067 672-713): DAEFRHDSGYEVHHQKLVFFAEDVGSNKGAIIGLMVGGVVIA
Protocol: For Aβ42 overexpression, M9 minimal medium (10 mL) containing kanamycin (50 μg/mL) was added to a colony of E. coli BL21 (DE3) competent cells, bearing the pET28a plasmid (Novagen, Inc., Madison, WI, USA), which contains the DNA sequence encoding for Aβ42. After overnight culture, the volume necessary to obtain a 1:500 dilution was added to fresh M9 minimal medium that contained kanamycin (50 μg/mL) and thioflavin-S (Th-S, 250 µM).
(§1) For Aβ42 overexpression, the corresponding E. coli cell cultures were kept growing overnight (37 °C; 250 rpm) until they reached an OD600 = 0.6. These cultures (980 μL) were added to a mixture of 10 μL of a solution of the new compounds in DMSO and 10 μL of 100 mM isopropyl 1-thio-β-D-galactopyranoside (IPTG), to reach a final compound concentration of 10 μM. The same procedure was used for tau overexpression but employing 10 μL of 25% arabinose instead of IPTG. The resulting E. coli cultures were kept growing overnight (37 °C; 1400 rpm) using an Eppendorf Thermomixer (Hamburg, Germany). To prepare a negative control for the assay, showing the highest amount of the amyloidogenic protein, the same quantity of DMSO, without the compounds to be tested, was added to the sample. With the double purpose of obtaining positive controls devoid of the amyloidogenic proteins and assessing the potential intrinsic toxicity of the new compounds, we also prepared samples that had not been treated with either IPTG or arabinose (non-induced samples).
(§2) To assess the inhibitory activity of compounds 4–7 on Aβ42 and tau aggregation within E. coli cells, a fluorescence assay was employed, using Th-S ([…] stock solution, T1892, Sigma, St. Louis, MO, USA) in double-distilled water (Milli-Q system, Millipore, Bay City, MI, USA) and an Aminco Bowman Series 2 luminescence spectrophotometer (Aminco-Bowman AB2, SLM Aminco, Rochester, NY, USA), working at 25 °C in the wavelength range of 460–600 nm, with λex = 445 nm, slit widths of 4 nm, and λem = 485 nm. The results are given as the average of nine independent experiments, each performed in triplicate.

tau aggregation = molecular target: T3, tau aggregation (Homo sapiens, UniProt P10636); assay: Tau aggregation inhibition in genetically modified E. coli cells (Th-S fluorescence); format: cell-based, Escherichia coli; details: live E. coli cells overexpressing tau
T3 construct: expressed in transfected cells; host or cells: E. coli BL21 (DE3) bearing pTARA and pRKT42
T3 sequence (P10636 other isoform, or with tags, fused parts or gaps): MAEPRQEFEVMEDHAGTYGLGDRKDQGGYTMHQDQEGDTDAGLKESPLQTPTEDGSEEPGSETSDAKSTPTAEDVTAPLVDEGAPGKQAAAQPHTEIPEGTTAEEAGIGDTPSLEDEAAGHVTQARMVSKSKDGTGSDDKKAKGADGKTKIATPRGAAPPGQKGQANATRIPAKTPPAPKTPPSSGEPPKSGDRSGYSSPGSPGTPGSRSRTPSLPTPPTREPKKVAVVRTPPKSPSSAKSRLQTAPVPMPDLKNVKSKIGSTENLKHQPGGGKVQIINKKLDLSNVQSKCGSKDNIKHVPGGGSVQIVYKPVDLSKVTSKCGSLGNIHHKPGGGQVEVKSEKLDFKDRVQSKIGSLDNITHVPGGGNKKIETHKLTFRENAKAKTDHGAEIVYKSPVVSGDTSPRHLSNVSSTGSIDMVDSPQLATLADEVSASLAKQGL
Protocol: For tau overexpression, M9 minimal medium (10 mL) containing glucose (0.5%), ampicillin (50 μg/mL), chloramphenicol (12.5 μg/mL), and E. coli BL21 (DE3) cells bearing the pTARA plasmid, which carries the RNA polymerase gene of the T7 phage (T7RP) under control of the PBAD promoter, and subsequent transformation with the pRKT42 vector were used instead. In this case, the overnight culture for a 1:500 dilution was added to fresh M9 minimal medium containing glucose (0.5%), chloramphenicol (12.5 μg/mL), ampicillin (50 μg/mL), and Th-S (250 µM).
as §1, §2

[2] = PAMPA-BBB, drugs used for assay validation
Protocol: The parallel artificial membrane permeability assay for the blood–brain barrier (PAMPA-BBB) [41] was used to assess the in vitro brain permeability of the new compounds. For the assay, the compounds were dissolved in mixtures of PBS and ethanol (70:30).

O=c1c(O)c(-c2cc(O)c(O)c(O)c2)oc2cc(O)cc(O)c12 [Myr, myricetin, reference compound] showed an IC50 [1] of 4.18 ± 0.5 µM.
CC(=O)[C@H]1CC[C@H]2[C@@H]3CCC4=CC(=O)CC[C@]4(C)[C@H]3CC[C@]12C [Progesterone, reference compound] gave a solubility at 2 h (physchem; Solubility) of 5.9 µM (≈ 1.86 µg/mL).
With O=C(NCCCCCCCCNc1c2c(nc3cc(Cl)ccc13)CCCC2)c1ccc2nc(-c3ccc(Cl)cc3)c3c(c2c1)NCCC3 [DP128, reference compound] the “Aβ42 Aggregation % inh. @10 µM” value (Aβ42 aggregation) was 78.1 ± 1.7% and the “Tau Aggregation % inh. @10 µM” value (tau aggregation) was 69.9 ± 0.7%.
With CN1C(C(=O)Nc2ccccn2)=C(O)c2ccccc2S1(=O)=O [Piroxicam, reference compound] the “Experimental Pe Value” [2] was 2.2 ± 0.1 10^−6 cm s^−1.
C[C@H]1O[C@@H](O[C@H]2[C@@H](O)C[C@H](O[C@H]3[C@@H](O)C[C@H](O[C@H]4CC[C@@]5(C)[C@H](CC[C@@H]6[C@@H]5C[C@@H](O)[C@]5(C)[C@@H](C7=CC(=O)OC7)CC[C@]65O)C4)O[C@@H]3C)O[C@@H]2C)C[C@H](O)[C@@H]1O [digoxin, reference compound] showed a solubility at 2 h (physchem) of 86.3 µM (≈ 67.4 µg/mL).
